# Results taken from US4048334A, “Active derivatives of methylamino in therapeutic compositions and methods of use” (priority 1974, dated 1977).
# Entries after “also recorded” stand apart in the source; their conditions may differ.
# Legend:
# [1] = test system: peripheral noradrenergic phenomena (arterial pressure, nictitating membrane); test: Influence on peripheral noradrenergic phenomena (norepinephrine, arterial pressure and nictitating membrane)
# [2] = test system: reserpine-induced catatonia; test: Suppression of reserpine-induced catatonia (curative treatment); assay type: in vivo, rat (male, OFA strain); parameters: key to catatonia score (maximum 5 per batch): number of animals (of 5) still in catatonia; max 5 per batch
# Method: a. Suppression of reserpine-induced catatonia
# Batches of 5 male rats of the OFA strain, weighing 150 to 200 g were given 5 mg/kg of reserpine by intraperitoneal route. One hour and 45 minutes later, namely when the animals were in a state of catatonia, an aqueous dose of the compound to be studied was administered by oral route to all the animals with the exception of the control group.
# The progress of the catatonia was then noted following the scale used in the tests described hereabove.
# The maximum score was thus 5 per batch which means that all the animals of the batch were considered to be still in a state of catatonia.
# in vivo = conditions: mouse, mice, oral, aqueous solution, 10 days observation
# catalepsy = test: Inhibition of catalepsy (crossing of homolateral paws, prochlorperazine); assay type: in vivo, rat; conditions: 5 mg/kg oral, 30 min before prochlorperazine i.p., 3 hours after
# Method: Additional trials were carried out on rats with Compound 1 and amantadine. These trials involved catalepsy as evidenced by the crossing of the animals' homolateral paws.
# [3] = Spasmolytic / cholinolytic (anticholinergic) activity in vivo or unspecified; conditions: at antiparkinsonian doses well below the toxic dose
# Emetic action = assay type: in vivo; conditions: dog, any dose
# From the text: Furthermore, the compounds of the invention have no emetic action in the dog at any doses and are not cholinolytic agents.
# [4] = test system: tremorine-induced cholinergic effects; test: Anti-tremorine test (cholinolytic properties in vivo); parameters: species or system mice (male, OF1 strain); key to peripheral cholinergic effects score (salivation, sweating, weeping): 0: no action; 1: slight action; 2: average action; 3: strong action; 4: very strong action
# Method: For this purpose, the following test was performed with a view to determining the anti-tremorine properties of Compound 1.
# When injected into mice, tremorine produces peripheral effects i.e. weeping, sweating, salivation and diarrhoea and central effects i.e. tremor and akinesia. Such effects are due to an increase in the amount of intracerebral acetylcholine and serotonine.
# Male mice of the OF1 strain weighing about 22 g were divided into batches of 10. […] Thirty minutes later a dose of 10 mg/kg of tremorine was injected by intraperitoneal route and, at different times after this injection, note was taken of the cholinergic effects on each animal in accordance with the following scale: […]
# electrocardiogram = test: Effect on the electrocardiogram; assay type: in vivo; conditions: dog, in vivo; listed as preferred compound of the invention
# [5] = SPERBER et al., J. Amer. Chem. Soc., 71, 3352 (1949); cited from earlier work
# [6] = test system: neuroleptic-induced catatonia; test: Suppression of neuroleptic-induced catatonia (curative treatment, prochlorperazine); assay type: in vivo, rat (male, OFA strain); conditions: for catatonia score (5 rats per batch): 5 mg/kg oral
# Method: b. Suppression of neuroleptic-induced catatonia
# Batches of 5 male rats of the OFA strain were given 12.5 mg/kg of prochlorperazine by intraperitoneal route. Fifty-five minutes later, an oral dose in aqueous solution of the compound to be studied was administered to all the animals with the exception of the control group. The progress of the catatonia was noted following the same scale as that used in the tests described above.
# [7] = test system: isolated duodenum of the rat; test: MAGNUS test: inhibition of acetylcholine spasm (cholinolytic / spasmolytic activity in vitro)
# From the text: This test consists in determining the dose of acetylcholine which, when added to the bath, provokes spasm of the isolated duodenum of the rat. The next step consists in determining the dose of the compound under study which, when added to the bath 30 seconds before the acetylcholine, reduces the spasm.
# [8] = test system: reserpine-induced catatonia; test: Inhibition of reserpine-induced catatonia; assay type: in vivo, rat (male, OFA strain)
# Method: 1. Inhibition of reserpine-induced catatonia
# After sufficient doses of reserpine have been administered to the rat, a series of symptoms occur, more particularly ptosis, catatonia and a drop in central temperature. These symptoms are caused by the depletion of the intragranular reserve pool of boigenetic amines at the synaptic terminals.
# An oral dose of the compound to be studied in aqueous solution was administered to batches of 10 male rats of the OFA strain weighing about 150 to 200 g. Thirty minutes later a dose of 5 mg/kg of reserpine was given by intraperitoneal route. Three hours after the injection of reserpine, the animals were suspended by the four paws to a horizontally stretched wire fixed at 15 cm from the ground. The catatonic animals were those which maintained the position so given for at least 30 seconds. […] The maximum score was therefore 10 per batch. An identical trial was undertaken with control animals which received reserpine but none of the compounds being studied.
# [9] = test system: reserpine-induced and neuroleptic-induced catatonia and catalepsy; test: Central noradrenergic and dopaminergic properties (general statement); conditions: in vivo
# From the text: These latter properties manifest themselves by an inhibitory action on reserpine-induced and neuroleptic-induced catatonia and catalepsy.
smiles,measurement,setting,value
CCCC(N)(CCC)CCC [Compound 1],Contractile reaction of the nictitating membrane with electric stimulation,[1]; cumulative dose 0.1 mg/kg i.v.,15 mm
same,Contractile reaction of the nictitating membrane without electric stimulation,[1]; cumulative dose 0.1 mg/kg i.v.,0 mm
same,Increase in arterial pressure after injection of norepinephrine,[1]; cumulative dose 0.1 mg/kg i.v.,18 mm Hg
same,Contractile reaction of the nictitating membrane with electric stimulation,[1]; cumulative dose 1 mg/kg i.v.,16 mm
same,Contractile reaction of the nictitating membrane without electric stimulation,[1]; cumulative dose 1 mg/kg i.v.,0 mm
same,Increase in arterial pressure after injection of norepinephrine,[1]; cumulative dose 1 mg/kg i.v.,25 mm Hg
same,Contractile reaction of the nictitating membrane with electric stimulation,[1]; cumulative dose 3 mg/kg i.v.,17 mm
same,Contractile reaction of the nictitating membrane without electric stimulation,[1]; cumulative dose 3 mg/kg i.v.,0 mm
same,Increase in arterial pressure after injection of norepinephrine,[1]; cumulative dose 3 mg/kg i.v.,29 mm Hg
same,Contractile reaction of the nictitating membrane with electric stimulation,[1]; cumulative dose 5 mg/kg i.v.,16 mm
same,Contractile reaction of the nictitating membrane without electric stimulation,[1]; cumulative dose 5 mg/kg i.v.,0 mm
same,Increase in arterial pressure after injection of norepinephrine,[1]; cumulative dose 5 mg/kg i.v.,25 mm Hg
same,Contractile reaction of the nictitating membrane with electric stimulation,[1]; cumulative dose 10 mg/kg i.v.,12 mm
same,Contractile reaction of the nictitating membrane without electric stimulation,[1]; cumulative dose 10 mg/kg i.v.,0 mm
same,Increase in arterial pressure after injection of norepinephrine,[1]; cumulative dose 10 mg/kg i.v.,22 mm Hg
same,ganglioplegic action,[1]; in vivo,is not a ganglioplegic agent
same,potentiation of (peripheral) effects of norepinephrine,[1]; in vivo,does not potentiate the effects either of exogenous norepinephrine or of endogenous norepinephrine
same,potentiation of (peripheral) effects of norepinephrine,"[1]; in vivo, listed as preferred compound of the invention",does not potentiate the peripheral effects of norepinephrine
same,catatonia score (maximum 5 per batch),"[2]; 2.5 mg/kg oral, 2h15 after reserpine",3
same,catatonia score (maximum 5 per batch),"[2]; 2.5 mg/kg oral, 2h30 after reserpine",2
same,catatonia score (maximum 5 per batch),"[2]; 2.5 mg/kg oral, 3h30 after reserpine",0
same,catatonia score (maximum 5 per batch),"[2]; 2.5 mg/kg oral, 2h after reserpine",4
same,catatonia score (maximum 5 per batch),"[2]; 2.5 mg/kg oral, 3h after reserpine",0
same,catatonia score (maximum 5 per batch),"[2]; 2.5 mg/kg oral, 4h after reserpine",0
same,catatonia score (maximum 5 per batch),"[2]; 2.5 mg/kg oral, 5h after reserpine",0
same,catatonia score (maximum 5 per batch),"[2]; 5 mg/kg oral, 2h15 after reserpine",1
same,catatonia score (maximum 5 per batch),"[2]; 5 mg/kg oral, 2h30 after reserpine",0
same,catatonia score (maximum 5 per batch),"[2]; 5 mg/kg oral, 3h30 after reserpine",0
same,catatonia score (maximum 5 per batch),"[2]; 5 mg/kg oral, 2h after reserpine",5
same,catatonia score (maximum 5 per batch),"[2]; 5 mg/kg oral, 3h after reserpine",0
same,catatonia score (maximum 5 per batch),"[2]; 5 mg/kg oral, 4h after reserpine",0
same,catatonia score (maximum 5 per batch),"[2]; 5 mg/kg oral, 5h after reserpine",0
same,rapidity of suppression of reserpine-induced catatonia,[2]; 2.5 and 5 mg/kg oral versus amantadine 80 mg/kg,suppresses reserpine-induced catatonia more rapidly than a dose of 80 mg/kg of amantadine
same,"times more active than amantadine, reserpine-induced catatonia, curative treatment",[2]; versus amantadine,at least 32 times
same,LD50 at 240 h,in vivo,100 mg/kg
same,inhibition of the catalepsy,catalepsy,complete inhibition of the catalepsy
same,spasmolytic activity in vivo,[3],non-existent
same,emetic action,Emetic action,devoid of emetic properties
same,"peripheral cholinergic effects score (salivation, sweating, weeping)","[4]; 5 mg/kg oral, 20, 30 and 40 minutes after tremorine 10 mg/kg i.p.",4
same,central cholinergic effects (normal and provoked tremor),"[4]; 5 mg/kg oral, identical to the peripheral score (4)",Identical results
same,antitremorine properties,"[4]; mouse, in vivo",devoid of antitremorine properties
same,effect on the electrocardiogram,electrocardiogram,does not cause any undesirable effect on the electrocardiogram; also recorded: devoid of emetic properties and of undesirable side-effects on the electrocardiogram
same,spasmolytic activity and toxicity versus corresponding trialkylethylamines,[5],less spasmolytic and more toxic than the corresponding trialkylethylamines
same,catatonia score (5 rats per batch),[6]; 1h30 after prochlorperazine,3
same,catatonia score (5 rats per batch),[6]; 2h30 after prochlorperazine,0
same,catatonia score (5 rats per batch),[6]; 3h30 after prochlorperazine,0
same,catatonia score (5 rats per batch),[6]; 3h after prochlorperazine,0
same,catatonia score (5 rats per batch),[6]; 4h after prochlorperazine,0
same,catatonia score (5 rats per batch),[6]; 5h after prochlorperazine,0
same,rapidity of action against neuroleptic-induced catatonia,[6]; 5 mg/kg versus amantadine 80 mg/kg,acts against neuroleptic-induced catatonia more rapidly than does a dose of 80 mg/kg of amantadine
same,"times more active than amantadine, neuroleptic-induced catatonia, curative treatment",[6]; versus amantadine,at least 16 times
same,spasmolytic activity in vitro,[7],"very weak, in fact practically non-existent"
same,% of inhibition of the spasm,[7]; 0.1 × 10^-3 g/ml of bath,0%
same,% of inhibition of the spasm,[7]; 0.1 × 10^-4 g/ml of bath,0%
same,% of inhibition of the spasm,[7]; 0.1 × 10^-5 g/ml of bath,0%
same,% of inhibition of the spasm,[7]; 0.2 × 10^-2 g/ml of bath,36%
same,% of inhibition of the spasm,[7]; 0.2 × 10^-6 g/ml of bath,0%
same,% of inhibition of the spasm,[7]; 0.5 × 10^-2 g/ml of bath,60%
same,cholinolytic activity in vitro,[7]; in comparison with atropine,virtually non-existent
same,Inhibition of reserpine-induced catatonia,"[8]; 5 mg/kg oral, 30 min before reserpine 5 mg/kg i.p.",4 (100% inhibition of catatonia in comparison with the controls (namely a score of 0 per studied batch))
same,"activity (dose) compared with amantadine, reserpine-induced catatonia",[8]; versus amantadine,as active as amantadine but at a dose which is twenty times inferior to that of amantadine
same,degree of activity,[9],marked degree of activity
